In ChEMBL document CHEMBL1165979, “Peptide fragmentation as an approach in modeling of an active peptide and designing a competitive inhibitory peptide for HMG-CoA reductase” (Bioorg Med Chem, 2010):
Non-standard residues stand in square brackets, D forms with d. Residues, ends and D or L forms follow the SMILES beside them. Phe(4-F) = N[C@@H](Cc1ccc(F)cc1)C(=O)O

Target: T1, 3-hydroxy-3-methylglutaryl-coenzyme A reductase (Homo sapiens, UniProt P04035)
T1 sequence (P04035 whole entry): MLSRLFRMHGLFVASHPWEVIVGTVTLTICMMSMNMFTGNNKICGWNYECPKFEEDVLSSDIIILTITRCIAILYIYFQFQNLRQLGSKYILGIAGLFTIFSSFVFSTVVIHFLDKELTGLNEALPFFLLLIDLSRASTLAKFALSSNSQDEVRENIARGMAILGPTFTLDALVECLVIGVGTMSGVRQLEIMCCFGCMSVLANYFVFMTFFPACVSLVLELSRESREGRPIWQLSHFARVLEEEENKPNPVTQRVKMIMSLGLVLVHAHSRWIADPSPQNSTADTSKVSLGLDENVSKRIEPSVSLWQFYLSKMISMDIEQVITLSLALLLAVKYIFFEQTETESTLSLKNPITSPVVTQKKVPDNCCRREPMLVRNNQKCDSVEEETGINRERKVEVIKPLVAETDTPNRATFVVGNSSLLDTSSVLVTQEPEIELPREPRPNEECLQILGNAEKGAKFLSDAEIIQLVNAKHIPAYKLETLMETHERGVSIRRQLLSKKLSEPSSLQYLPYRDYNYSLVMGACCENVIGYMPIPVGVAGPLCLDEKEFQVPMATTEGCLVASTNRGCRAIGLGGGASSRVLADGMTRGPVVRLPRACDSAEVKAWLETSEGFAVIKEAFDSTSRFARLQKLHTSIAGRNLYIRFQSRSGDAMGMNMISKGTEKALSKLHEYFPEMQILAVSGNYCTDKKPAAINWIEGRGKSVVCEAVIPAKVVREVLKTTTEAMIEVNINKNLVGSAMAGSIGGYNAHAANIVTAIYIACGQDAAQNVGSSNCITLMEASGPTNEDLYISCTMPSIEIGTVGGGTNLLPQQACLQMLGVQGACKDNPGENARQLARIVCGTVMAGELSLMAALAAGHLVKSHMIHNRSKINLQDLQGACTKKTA
Experiment: Inhibition of HMG-CoA reductase by spectrophotometry
Details: not given; call rule not given here

With NCC(=O)N[C@@H](Cc1ccc(F)cc1)C(=O)N1CCC[C@H]1C(=O)NCC(=O)NCC(=O)NCC(=O)O (H-G[Phe(4-F)]PGGG-OH) the IC50 was “Not Active”.
For H-DFGYVAG-OH, the IC50 was “Not Active”.

Same assay, conditions: read-out: IC50

CC(C)[C@H](NC(=O)[C@H](Cc1ccc(F)cc1)NC(=O)CNC(=O)[C@@H](N)Cc1ccccc1)C(=O)N[C@@H](C)C(=O)N[C@@H](CCC(=O)O)C(=O)O (H-FG[Phe(4-F)]VAE-OH) and NCC(=O)N[C@@H](Cc1ccc(F)cc1)C(=O)N1CCC[C@H]1C(=O)N[C@@H](CC(=O)O)C(=O)NCC(=O)NCC(=O)O (H-G[Phe(4-F)]PDGG-OH) are within 1.5-fold of each other in IC50: 8.52 µM for the first, 6.95 µM for the second.

Compared with NCC(=O)N[C@@H](Cc1ccc(F)cc1)C(=O)N1CCC[C@H]1C(=O)N[C@@H](CCC(=O)O)C(=O)NCC(=O)NCC(=O)O (H-G[Phe(4-F)]PEGG-OH), C[C@@H](O)[C@H](NC(=O)[C@@H]1CCCN1C(=O)[C@H](Cc1ccc(F)cc1)NC(=O)CN)C(=O)NCC(=O)NCC(=O)O (H-G[Phe(4-F)]PTGG-OH) is 6.4-fold higher in IC50: 0.75 µM for the first, 4.82 µM for the second. The first is the more potent here.

CC[C@H](C)[C@H](N)C(=O)N[C@@H](C)C(=O)N[C@H](C(=O)N[C@@H](CCC(=O)O)C(=O)O)C(C)C (H-IAVE-OH) and CC[C@H](C)[C@H](N)C(=O)N[C@H](C(=O)N[C@@H](C)C(=O)N[C@@H](CCC(=O)O)C(=O)O)C(C)C (H-IVAE-OH) are within 1.5-fold of each other in IC50: 75.2 µM for the first, 52.7 µM for the second.

Compared with CC(C)C[C@H](N)C(=O)N1CCC[C@H]1C(=O)N[C@@H](Cc1ccc(O)cc1)C(=O)N1CCC[C@H]1C(=O)O (H-LPYP-OH), CC(C)[C@H](NC(=O)[C@H](C)NC(=O)[C@@H](N)Cc1ccc(O)cc1)C(=O)N[C@@H](CCC(=O)O)C(=O)O (H-YAVE-OH) is 11-fold lower in IC50: 485 µM for the first, 44.8 µM for the second.

Compared with CC(C)[C@H](NC(=O)[C@@H](N)Cc1ccc(O)cc1)C(=O)N[C@@H](C)C(=O)N[C@@H](CCC(=O)O)C(=O)O (H-YVAE-OH), CC(C)[C@H](NC(=O)[C@@H](N)Cc1ccc(F)cc1)C(=O)N[C@@H](C)C(=O)N[C@@H](CCC(=O)O)C(=O)O (H-[Phe(4-F)]VAE-OH) is 11-fold lower in IC50: 41.2 µM for the first, 3.84 µM for the second. The second is the more potent here.

Compared with H-DFGYVAE-OH, H-EFGYVAE-OH is 1.5-fold higher in IC50: 0.16 µM for the first, 0.24 µM for the second.

Going from H-FFYVAE-OH to H-FGYVAE-OH, the IC50 falls from 2.56 µM to 0.41 µM (6.2-fold).

First: H-FPYVAE-OH
Second: H-GFGYVAE-OH
The IC50 of the first is 5.4-fold higher: 1.47 µM for the first, 0.27 µM for the second.

H-GFPDGG-OH and H-GFPEGG-OH are within 1.5-fold of each other in IC50: 1.52 µM for the first, 1.78 µM for the second.

H-GFPTGG-OH and H-GLPDGG-OH are within 1.5-fold of each other in IC50: 16.9 µM for the first, 22.3 µM for the second.

H-GLPEGG-OH and H-GLPTGG-OH are within 1.5-fold of each other in IC50: 27.3 µM for the first, 19.4 µM for the second.

H-IAVPGEVA-OH and H-IAVPTGVA-OH are within 1.5-fold of each other in IC50: 201 µM for the first, 152 µM for the second.

H-TFGYVAE-OH showed an IC50 of 0.26 µM.

Target: T1, 3-hydroxy-3-methylglutaryl-coenzyme A reductase
Experiment: Competitive inhibition of HMG-CoA reductase by Dixon plot analysis
Details: not given

Going from C[C@@H](O)[C@H](NC(=O)[C@@H]1CCCN1C(=O)[C@H](Cc1ccc(F)cc1)NC(=O)CN)C(=O)NCC(=O)NCC(=O)O (H-G[Phe(4-F)]PTGG-OH) to H-DFGYVAE-OH, the Ki falls from 0.26 µM to 0.051 µM (5.1-fold).
